In PMC8677648, “A robotic pill for oral delivery of biotherapeutics: safety, tolerability, and performance in healthy subjects” (Drug Delivery and Translational Research, 2021):

What was measured:
[1] = Study 1: pharmacokinetics of octreotide delivered via RP or IV injection (plasma LC/MS/MS); settings: human, in vivo, 100 ug
Method: This was a single-center, open-label study.
Fluoroscopic imaging was performed with Siemens AXIOM Artis dMP using standard abdominal protocol.
Serial blood samples for PK analysis were collected immediately before the injection and at 5, 10, 15, 20, 25, 30, 40, 50, 60, 90, 120, 150, 180, and 240 min after dosing.
Blood samples were collected into potassium-EDTA treated lavender top tubes, plasma was separated via centrifugation and aliquots stored at −80℃ until analyzed. […] The analysis was performed using an API 5000 mass spectrometer from Applied Biosystems.
MS Excel (2016) and GraphPad (Version 8.4.3) were used for data analysis. Categorical data are expressed as counts and percentages, and continuous data as mean ± standard deviation (SD) or standard error (SE), as indicated. PK parameters were calculated using noncompartmental analysis (NCA) implemented within a validated installation of Phoenix® WinNonlin. The Cmax (peak plasma concentration) and Tmax (time to reach Cmax) were obtained graphically from the concentration vs. time profiles. Unpaired t tests were used to determine differences between groups with a p value of 0.05 or less deemed as significant.

[2] = in vivo, cited from earlier work
Method: For example, subjects need to take oral semaglutide at least 30 min before the first food, beverage, or other or ...

Row | Compound | Cmax [1] [ng/mL] | Tmax [1] [min] | bioavailability ([2]; po) | half-life [2] [h]
1 | C[C@@H](O)[C@@H]1NC(=O)[C@H](CCCCN)NC(=O)[C@@H](Cc2c[nH]c3ccccc23)NC(=O)[C@H](Cc2ccccc2)NC(=O)[C@@H](NC(=O)[C@H](N)Cc2ccccc2)CSSC[C@@H](C(=O)N[C@H](CO)[C@@H](C)O)NC1=O [octreotide] | 11.1 | 5 |  | 
2 | semaglutide |  |  | ~ 1% | 170
